Columns and labels:
rats = assay: Test for antiarthritic activity in rats (adjuvant); assay type: in vivo; conditions: Rattus norvegicus, daily oral route from day 15, read on day 25
Experimental: V: Test for Antiarthritic Activity in Rats
The test for antiarthritic activity is carried out as described in the publication of Anderson et al., J. Clin. Invest. 97, 11, 2672-2679, (1996). The respective part of the description is hereby incorporated by reference and forms part of the present disclosure.
On day 0 of the experiment, the volumes of the contralateral paws to those injected, i.e. left hind paws, are measured by means of a pletismometer, the readings of which are expressed in ml.
Next, each rat is injected the adjuvant, consisting of 1 mg of Mycobacterium butyricum suspended in 0.1 ml of mineral oil, via subplantar route in the right hind paw.
Approximately every day, and for 15 days after the injection of adjuvant, the volumes of non-injected hind paws (contralateral) are measured again. […]
On day 15 of the experiment, daily administration of the compounds to be tested via oral route is started, and on each day, the volumes of non-injected hind paws is recorded.
On Day 25 of the experiment, the body weights and non-injected hind paws (contralateral) volumes are measured for the last time, and these values were used to determine the activities.

Cox-2 = target: T1, Cox-2 (Homo sapiens, UniProt P35354); assay: Cox-2 activity in human whole blood (LPS, PGE2); assay type: cell-based; conditions: read-out: hWB inhibition COX-2 IC50
T1 construct: 0.5 ml of fresh human blood; from tissue; host or cells: fresh human whole blood stimulated with E. coli 0111:B4 LPS
T1 sequence (P35354 18-604): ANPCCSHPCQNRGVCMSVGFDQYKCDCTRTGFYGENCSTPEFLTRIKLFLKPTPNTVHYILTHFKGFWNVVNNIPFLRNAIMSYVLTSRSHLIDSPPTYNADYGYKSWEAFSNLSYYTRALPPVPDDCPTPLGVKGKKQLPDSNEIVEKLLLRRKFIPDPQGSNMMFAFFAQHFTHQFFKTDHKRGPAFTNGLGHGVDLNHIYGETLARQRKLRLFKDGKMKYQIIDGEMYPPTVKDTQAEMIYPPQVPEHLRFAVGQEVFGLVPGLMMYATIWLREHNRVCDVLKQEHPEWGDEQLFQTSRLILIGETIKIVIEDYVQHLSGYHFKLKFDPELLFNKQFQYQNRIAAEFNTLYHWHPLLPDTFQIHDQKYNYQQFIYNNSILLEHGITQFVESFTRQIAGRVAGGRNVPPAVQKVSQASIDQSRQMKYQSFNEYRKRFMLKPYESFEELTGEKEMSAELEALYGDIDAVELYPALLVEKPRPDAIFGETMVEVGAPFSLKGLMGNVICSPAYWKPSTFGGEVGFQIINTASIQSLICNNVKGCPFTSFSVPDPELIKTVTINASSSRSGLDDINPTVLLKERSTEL
Experimental: (§1) II. Determination of Cox-1- and Cox-2-Activity in Human Whole Blood
(§2) The Cox-1- and Cox-2-activity in human whole blood is determined according to a modification of the method described in the publication of C. Brideau et al., “A human whole blood assay for clinical evaluation of biochemical efficacy of cyclooxygenase inhibitors”, Inflamm Res 1996; 45: 68-74. The respective part of the description is hereby incorporated by reference and forms part of the present disclosure.
For Cox-2 activity determination, tubes are prepared with 2 μl of the compound to be tested or DMSO, 12 μg/ml of aspirine, 9 μl of 1% (weight/volume) sodium heparine and 0.5 ml of fresh human blood. Samples are pre-incubated at 37° C. during 15 minutes and E. coli 0111:B4 LPS (from Sigma Chemical, St. Louis, Mo. U.S.A., catalogue number L-3012) are added for incubation during 24 h at 37° C. The samples are centrifuged for 100 μl of plasma collection. 400 μl of Ethyl acetate and 1% (volume/volume) methanol are added to each sample and the tubes are stirred and centrifuged for 10 minutes at 5000 g at 4° C. 300μl of supernatant are aspirated and evaporated under nitrogen atmosphere. Prostaglandin E2 concentration is quantified using an assay kit from Cayman Chemical, Ann-Arbor, Mich., U.S.A. (Catalogue number: 514010 ) after reconstitution into 300 μl assay buffer supplied in the assay kit.

Cox-1 enzyme = target: T2, Cox-1 enzyme (Ovis aries, UniProt P05979); assay: Cox-1/Cox-2 enzyme assay (Cox-1); assay type: biochemical; conditions: for IC50: enzyme assay; for inhibition at 50 µM: read-out: % inhibition 5 × 10^−5 M COX-1
T2 construct: purchased Cayman Chemical 60100
T2 sequence (P05979 25-600): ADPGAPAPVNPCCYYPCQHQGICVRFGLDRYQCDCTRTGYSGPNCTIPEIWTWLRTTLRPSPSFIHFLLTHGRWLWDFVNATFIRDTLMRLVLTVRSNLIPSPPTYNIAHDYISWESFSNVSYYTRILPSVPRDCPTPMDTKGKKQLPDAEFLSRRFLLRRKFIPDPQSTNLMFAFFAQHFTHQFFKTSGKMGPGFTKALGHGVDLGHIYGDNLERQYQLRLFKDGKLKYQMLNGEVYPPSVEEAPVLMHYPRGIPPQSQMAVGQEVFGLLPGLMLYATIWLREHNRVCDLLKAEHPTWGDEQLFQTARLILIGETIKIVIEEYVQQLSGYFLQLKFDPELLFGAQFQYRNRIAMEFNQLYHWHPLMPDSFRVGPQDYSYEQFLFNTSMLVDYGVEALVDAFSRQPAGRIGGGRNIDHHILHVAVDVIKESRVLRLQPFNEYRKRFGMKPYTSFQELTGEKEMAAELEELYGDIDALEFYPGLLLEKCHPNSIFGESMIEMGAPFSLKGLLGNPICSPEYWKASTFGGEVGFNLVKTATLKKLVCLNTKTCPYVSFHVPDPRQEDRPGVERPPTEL
Experimental: (§3) I. Cox-1/Cox-2 Enzyme Assay:
(§4) The Cox-1/Cox-2 enzyme assay for the inventive azetidine compounds is carried out according to the following description:
(§5) Immediately after the addition of the substrate, the slope corresponding to the optical density increase at 480 nm is recorded for 1 minute. The reaction is monitored with a Hewlett-Packard 8452A spectrophotometer.

Cox-1 = target: T3, Cox-1 (Homo sapiens, UniProt P23219); assay: Cox-1 activity in human whole blood (TXB2); assay type: cell-based; conditions: read-out: hWB inhibition COX-1 IC50
T3 construct: from tissue; host or cells: fresh human whole blood
T3 sequence (P23219 24-599): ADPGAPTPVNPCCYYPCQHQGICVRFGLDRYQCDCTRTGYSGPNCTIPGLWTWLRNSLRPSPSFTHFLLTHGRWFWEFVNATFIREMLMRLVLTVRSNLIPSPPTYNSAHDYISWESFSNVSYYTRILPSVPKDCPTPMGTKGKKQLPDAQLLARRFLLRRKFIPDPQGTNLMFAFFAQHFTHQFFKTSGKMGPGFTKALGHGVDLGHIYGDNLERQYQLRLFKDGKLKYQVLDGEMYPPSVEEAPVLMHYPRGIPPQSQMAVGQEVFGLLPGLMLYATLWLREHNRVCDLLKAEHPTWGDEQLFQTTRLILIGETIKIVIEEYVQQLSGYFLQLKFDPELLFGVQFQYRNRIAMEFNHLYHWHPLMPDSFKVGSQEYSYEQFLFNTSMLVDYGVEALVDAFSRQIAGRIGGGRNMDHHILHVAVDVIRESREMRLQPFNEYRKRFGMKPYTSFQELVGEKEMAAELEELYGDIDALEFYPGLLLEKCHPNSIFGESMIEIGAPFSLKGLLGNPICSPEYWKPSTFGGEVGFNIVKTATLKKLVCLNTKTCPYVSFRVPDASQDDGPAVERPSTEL
Experimental: as §1, §2
For Cox-1 activity determination, fresh human blood is distributed in a volume of 0.5 ml to silicone Eppendorf tubes, into which 2 μl of the compound to be tested or dimethylsulfoxide (DMSO) at a final concentration of 0.4% (volume/volume). The tubes are inverted for homogenization and incubated for 1 hour at 37° C. under slight stirring. Afterwards they are centrifuged for 15 min at 10500 g and 100 μl of serum is collected. Proteins are precipitated by the addition of 400 μl of methanol to each tube, tubes were centrifuged for 10 minutes at 5000 g and 300 μl of supernatant is aspirated and then dried under nitrogen atmosphere.
Tromboxane B2 (TXB2) concentration is quantified using an assay kit (Caymann Chemical, Ann Arbor, Mich., U.S.A., Catalogue number 519031) after reconstitution into 300 μl assay buffer supplied in the assay kit.

Cox-2 enzyme = target: T4, Cox-2 enzyme (Ovis aries, UniProt P79208); assay: Cox-1/Cox-2 enzyme assay (Cox-2); assay type: biochemical; conditions: for IC50: enzyme assay
T4 construct: purchased Cayman Chemical 60120
T4 sequence (P79208 17-603): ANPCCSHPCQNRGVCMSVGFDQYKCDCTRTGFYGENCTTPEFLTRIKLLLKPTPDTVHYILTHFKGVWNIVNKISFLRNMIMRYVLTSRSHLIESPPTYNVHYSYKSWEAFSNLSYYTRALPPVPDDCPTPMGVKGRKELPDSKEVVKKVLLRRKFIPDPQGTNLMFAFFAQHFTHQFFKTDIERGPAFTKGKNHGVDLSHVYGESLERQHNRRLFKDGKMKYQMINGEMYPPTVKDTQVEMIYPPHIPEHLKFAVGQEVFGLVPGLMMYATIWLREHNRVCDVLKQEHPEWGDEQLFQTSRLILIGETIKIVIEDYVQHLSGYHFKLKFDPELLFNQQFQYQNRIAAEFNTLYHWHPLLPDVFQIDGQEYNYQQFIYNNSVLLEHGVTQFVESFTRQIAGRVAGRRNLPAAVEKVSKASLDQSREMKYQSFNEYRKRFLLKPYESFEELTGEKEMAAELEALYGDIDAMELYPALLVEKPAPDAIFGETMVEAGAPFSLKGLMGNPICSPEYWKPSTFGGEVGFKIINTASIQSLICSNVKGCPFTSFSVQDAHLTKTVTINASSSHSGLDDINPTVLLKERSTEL
Experimental: as §3, §4, §5

| Structure (SMILES) | ED50 (rats) | IC50 (Cox-2) | IC50 (Cox-1 enzyme) | melting point | IC50 (Cox-1) | IC50 (Cox-2 enzyme) | inhibition at 50 µM (Cox-1 enzyme) | inhibition at 50 µM (Cox-2 enzyme; read-out: % inhibition 5 × 10^−5 M COX-2) |
| --- | --- | --- | --- | --- | --- | --- | --- | --- |
| CC(C)(C)c1cc(C(=O)N2CC(O)C2)cc(C(C)(C)C)c1O [Example 1, (3,5-di-tert-butyl-4-hydroxy-phenyl)-(3-hydroxy-azetidin-1-yl)-methanone] | 0.5 mg/kg | 200 nM | 37700 nM | 185 to 189 °C | 100 nM | 1510 nM |  |  |
| CC1(O)CN(C(=O)c2cc(C(C)(C)C)c(O)c(C(C)(C)C)c2)C1 [Example 3, (3,5-di-tert-butyl-4-hydroxy-phenyl)-(3-hydroxy-3-methyl-azetidin-1-yl)-methanone] | 0.34 mg/kg | 100 nM | 349000 nM | 148 to 153 °C | 100 nM | 3510 nM |  |  |
| CC(C)(C)c1cc(C(=O)N2CC(Br)C2)cc(C(C)(C)C)c1O [Example 7, (3-Bromo-azetidin-1-yl)-(3,5-di-tert-butyl-4-hydroxy-phenyl)-methanone] |  |  |  | 160 to 163 °C |  | 200 nM | 35% |  |
| CC(C)(C)c1cc(CC(=O)N2CC(O)C2)cc(C(C)(C)C)c1O [Example 18, 2-(3,5-di-tert-butyl-4-hydroxy-phenyl)-1-(3-hydroxy-azetidin-1-yl)-ethanone] |  |  |  | 154 to 156 °C |  |  | 4% | 1% |
